From US10207003B2, “Liquid pentablock co-polymer formulations for sustained delivery of therapeutics” (i-novion, Inc., priority 2016, dated 2019)

Tests used:
[1] = Visual clarity of PTSsol formulations on storage; type: physicochemical; settings: for Time formulation remained clear and stable: PTSsol, stored at room temperature or refrigerated at 4° C., 1% cyclosporine, up to 2.5% brinzolamide; for Time formulation remained visibly clear without drug precipitating out: stored refrigerated, exemplary PTSsol, 1% and 2.5% brinzolamide, 1% cyclosporine A, 0.07% and 0.1% difluprednate
Method: (§1) Hydrophobic active agents that are difficult to formulate in aqueous compositions are typically formulated as emulsions or suspensions. […] Similarly, PTSsol for 0.5% celecoxib was prepared in 10% PTS121GH in PBS buffer at pH 7.4. […] Referring to FIGS. 2 and 3 the stability of 2.5% brinzolamide in 25% 1-0 GH polymer dispersion in PBS at pH 7.4 was analyzed over 8 weeks, using HPLC.
In this example, an artificial tear composition using PTSsol polymers was generated. PTS solutions are clear, bioadhesive, biocompatible, and biodegradable polymers ideal for sensitive medical applications, such as preparing artificial tears for relieving eye discomfort caused by dry eye. […] Additional excipients can be added to the formulation as desired.

[2] = Dissolving hydrophobic active agents in PTSsol as clear aqueous liquids; type: physicochemical
Method: as §1

Structure (SMILES)	Time formulation remained clear and stable [1] [weeks]	Time formulation remained clear and stable ([1]; listed as BRZ) [weeks]	Time formulation remained visibly clear without drug precipitating out [1] [days]	Drug concentration dissolved as clear liquid ([2]; in 10% PTS1-0GH PTSsol)	Drug concentration dissolved as very clear liquid ([2]; in 10% of 121GH polymer) [%]	Dissolution in hydrophilic polymer ([2]; directly in PTS121 GH polymer)	Drug concentration of stable aqueous formulation ([2]; first dissolved in gelling polymer 113 GH or 122 GH, then mixed with PTS121 GH) [%]
CCN[C@H]1CN(CCCOC)S(=O)(=O)c2sc(S(N)(=O)=O)cc21 [brinzolamide]	8	≥ 8	28	up to 2.5%	2.5		
CCCC(=O)O[C@]1(C(=O)COC(C)=O)CC[C@H]2[C@@H]3C[C@H](F)C4=CC(=O)C=C[C@]4(C)[C@@]3(F)[C@@H](O)C[C@@]21C [difluprednate]			8			does not readily dissolve	≤ 0.1
